Assay results reported in EP0235259B1, “NOVEL TRANSDERMAL ANTI-ANGINAL PHARMACEUTICAL DOSAGE UNIT AND PROCESS FOR ITS ADMINISTRATION” (RUTGERS, THE STATE UNIVERSITY OF NEW JERSEY, priority 1985, dated 1987).
Where two headings read alike, the source gives them in different places.

Test system: skin from a "hairless" mouse or human cadaver
Assay: transdermal absorption (skin permeation) of nitroglycerin from polymer matrix dosage units, procedure of Keshary and Chien
Details: for Enhancement Factor: Table XIV, 15% W/W nitroglycerin in DC-382 matrix
Description: Enhancing Factor is defined as the ratio of normalized permeation rate [in mcg/cm²/hr] of a dosage unit of this invention with skin permeation enhancer/the normalized permeation rate of a corresponding dosage unit without enhancer in the adhesive layer.
Pharm., 10 (6) 883-913(1984).

Row | Structure (SMILES) | Skin Permeation Rate Without [mcg/cm²/hr] | Enhancing Factor (0.8 mg/cm²) | Enhancing Factor (1.59 mg/cm²) | Enhancing Factor (3.18 mg/cm²) | other results
1 | CCCCCCCCCCCCCC(=O)OCC(CO)OC(=O)CCCCCCCCCCCCC (racemic) [1,2-Dimyristoyl-RAC-Glycerol] | 39.4 ± 4.32 | – | – | – | Enhancing Factor (1.6 mg/cm²): 1.03; Skin Permeation Rate With (1.6 mg/cm²): 40.64 ± 4.27 mcg/cm²/hr
2 | CCCCCCCCCCCCCC(=O)OCC(O)COC(=O)CCCCCCCCCCCCC (racemic) [1,3-Dimyristoyl-RAC-Glycerol] | 34.1 ± 1.62 | – | – | – | Enhancing Factor (1.6 mg/cm²): 0.94; Skin Permeation Rate With (1.6 mg/cm²): 32.13 ± 6.94 mcg/cm²/hr
3 | CCCCCCCCCCCCCC(=O)OCC(O)CO (racemic) [1-Monomyristoly-RAC-Glycerol] | 34.1 ± 1.62 | – | – | – | Skin Permeation Rate With: 29.88 ± 3.84 mcg/cm²/hr
4 | CCCCCCCCCCCCCCCC(=O)OCC(O)CO (racemic) [1-Monopalmitoyl-RAC-Glycerol] | 34.1 ± 1.62 | – | – | – | Enhancing Factor (1.6 mg/cm²): 0.86; Skin Permeation Rate With (1.6 mg/cm²): 29.39 ± 1.76 mcg/cm²/hr
5 | CCCCCCCCCC(=O)O [Enhancer B, Decanoic acid] | – | 2.59 | 4.11 | 4.41 | –
6 | CCCCCCCCCCCCCC(=O)OCCC [Enhancer C, Propyl myristate] | – | 1.67 | 1.92 | 3.07 | Enhancing Factor (4.78 mg/cm²): 3.41
7 | CCCCCCCC/C=C\CCCCCCCC(=O)OCCC [Enhancer D, Propyl oleate] | – | 1.22 | 2.43 | 3.08 | Enhancing Factor (4.78 mg/cm²): 3.78
8 | CCCCCCCC/C=C\CCCCCCCCO [Enhancer E, Oleyl alcohol] | – | 1.69 | 2.82 | 2.65 | –
9 | CCCCCCCCCC[S+](C)[O-] (centres unmarked) [Enhancer G, Decylmethyl sulfoxide] | – | 1.61 | 1.87 | – | Enhancing Factor (2.4 mg/cm²): 2.02; Enhancing Factor (5 mg/cm²): 1.36; Enhancing Factor (10 mg/cm²): 1.22
10 | CCCCCCCCCCCCCC(=O)N(C)C [Enhancer H, Myristic acid, N,N-dimethylamide] | – | 1.3 | 2.0 | 1.6 | Enhancing Factor (4.78 mg/cm²): 1.5
11 | O=[N+]([O-])OCC(CO[N+](=O)[O-])O[N+](=O)[O-] [NITROGLYCERIN, nitroglycerin, reference compound] | – | – | – | – | Enhancement Factor (enhancers (mg/cm²): (+) menthol 0.8 + capric acid 0.8 + Methyl Salicylate 0.8): 3.36; Enhancement Factor (enhancers (mg/cm²): (+) menthol 0.8 + capric acid 0.8 + Oleyl alcohol 0.8): 5.29; Enhancement Factor (enhancers (mg/cm²): (+) menthol 0.8 + capric acid 0.8 + Oleyl alcohol 1.6): 4.61; Enhancement Factor (enhancers (mg/cm²): (+) menthol 0.8 + capric acid 0.8 + Salicylic acid 0.8): 3.47
